Series [1] has as its target T1, human purulent sputum elastase (Homo sapiens, UniProt P08246).
T1 construct: purchased Elastin Products Co; host or cells: human purulent sputum
T1 sequence (P08246 30-247 limits assumed): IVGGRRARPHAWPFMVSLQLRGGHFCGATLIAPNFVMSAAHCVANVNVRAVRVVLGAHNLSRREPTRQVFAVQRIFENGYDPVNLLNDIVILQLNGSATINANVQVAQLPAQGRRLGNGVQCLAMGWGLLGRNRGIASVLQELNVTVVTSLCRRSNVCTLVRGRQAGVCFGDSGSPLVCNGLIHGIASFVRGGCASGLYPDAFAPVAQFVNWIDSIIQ
Nature of the series: Human purulent sputum elastase-inhibitory activity (hydrolysis of methoxysuccinyl-peptidyl-p-nitroanilide, absorbance at 410 nm). Particulars: for IC50: Table 10, procedure of Example 19 (A). The class given is biochemical. The text has this: Human purulent sputum elastase is believed to be the same enzyme as human leukocyte elastase, as described by Tomashi et al. (J. BIOL. CHEM., vol. 252, pages 1917 to 1924 (1977)), and can be easily obtained commercially.
The extent of the hydrolysis of AAPVpNA by human purulent sputum elastase can be easily determined by measuring the amount of p-nitroaniline released from AAPVpNA, by a spectrophotometer. Then, by comparing the extent of hydrolysis of AAPVpNA by the human purulent sputum elastase in the absence of a compound to be tested with that in the presence of the compound to be tested in various concentrations, a concentration (IC50) of the compound to be tested necessary to inhibit 50% of the elastase reaction can be determined.
(§1) Inhibitory activities of 7-(N-carbobenzoxy-L-phenylalanyl)amino-2-isopropylamino-5-methyl-4H-3,1- benzoxazin-4-one for human purulent sputum elastase, for α-chymotrypsin, for cathepsin G, for trypsin, for thrombin and for plasmin were determined by the following methods and the results are shown in Table 9.
The testing buffer (pH7.5) consisted of 0.1M N-2-hyiroxyethylpiperazine-N'-2-ethanesulfonic acid, 1M sodium chloride and 0.1% w/v polyethylene glycol 6000.
Human purulent sputum elastase was obtained from Elastin Products Co., and adjusted to 1.5×10^-8 M in the testing buffer.
Methoxysuccinyl-[…]-p-nitroanilide was obtained from Bachem Co., and made to 10 mM in dimethyl sulfoxide.
Procedure To 2.4ml of testing buffer in a cell set at 37° in a spectrophotometer (Hitachi U-3200) with a temperature controlled cell holder were added 25 μl of substrate solution and 25 μl of acetonitrile with or without inhibitory compounds, and the resultant mixture was stirred. Reactions were initiated by addition of 50 μl of the enzyme solution and hydrolysis of the substrate was monitored by measuring a change of light absorbance at 410 nm. The concentration (IC50) at which 50% of the activity of human purulent sputum elastase was inhibited was determined for each inhibitory compound from a steady state velocity of the substrate hydrolysis.
(§2) In each of Examples 20 to 37 and Comparative Examples 1 to 4, the same experimental procedures as those described in Example 19, items (A) and (B) were used for determination of enzyme inhibitory activity, except that the compound indicated in Table 10 was tested as an inhibitory compound.

Series [2] deals with T2, bovine pancreas α-chymotrypsin (Bos taurus, UniProt P00766).
T2 construct: bovine pancreas α-chymotrypsin; purchased Sigma Co; host or cells: bovine pancreas
The series can be described thus: α-chymotrypsin-inhibitory activity (hydrolysis of succinyl-Ala-Ala-Pro-Phe-p-nitroanilide). It counts as biochemical. As to conditions: for IC50 / Selectivity: Table 10; for IC50: procedure of Example 19 (B); for Selectivity: ratio of IC50 for bovine α-chymotrypsin to IC50 for human purulent sputum elastase. The method, then: An in vitro test similar to that mentioned above can be applied to chymotrypsin.
As a chymotrypsin, α-chymotrypsin of bovine pancreas, which is readily available commercially, is used. […] The extent of the hydrolysis of AAPFpNA is measured in the absence of a compound to be tested or in the presence of the compound in various concentrations thereof, and thus a concentration (IC50) of the compound necessary to inhibit 50% of the enzyme reaction can be determined.
as §1
The same procedures as those described in the above item (A) for the human purulent sputum elastase were carried out, with the following exception.
The enzyme-testing tuffer solution contained 2×10^-8 M bovine pancreas α-chymotrypsin (available from Sigma Co.). The synthetic substrate was succinyl-L-alanyl-L-alanyl-L-prolyl-L-henylalanyl-p-nitroanilide (available from Bachem Co.).
An IC50 for the α-chymotrypsin was determined in the same manner as mentioned above. (C) Determination of human cathepsin G-inhibitory activity
as §2
In Table 10, the item "Selectivity" refers to a ratio of an IC50 value for bovine α-chymotrypsin to an IC50 value for human purulent sputum elastase. The larger the value of the ratio, the higher the selectivity of the inhibitory activity for elastase.

The target of the next series is T3, human thrombin (Homo sapiens, UniProt P00734).
T3 construct: human thrombin; purchased Daiichi Kagaku Yakuhin K.K
Nature of the series: Thrombin-inhibitory activity. As to conditions: Table 9. It counts as biochemical. The procedure: as §1
The same procedures as those described in item (A) were carried out except that the enzyme-testing buffer solution contained 0.04 μkat/ml human thrombin (available from Daiichi Kagaku Yakuhin K.K.) and the substrate consisted of D-phenylalanyl-pipecolyl-arginyl-p-nitroanilide (available from Daiichi Kagaku Yakuhin K.K.).
An IC for the human thrombin was determined in the same manner as mentioned above.

The target of a further series is T4, human plasmin (Homo sapiens, UniProt P00747).
T4 construct: human plasmin; purchased Daiichi Kagaku Yakuhin K.K
T4 sequence (P00747 581-810 limits assumed): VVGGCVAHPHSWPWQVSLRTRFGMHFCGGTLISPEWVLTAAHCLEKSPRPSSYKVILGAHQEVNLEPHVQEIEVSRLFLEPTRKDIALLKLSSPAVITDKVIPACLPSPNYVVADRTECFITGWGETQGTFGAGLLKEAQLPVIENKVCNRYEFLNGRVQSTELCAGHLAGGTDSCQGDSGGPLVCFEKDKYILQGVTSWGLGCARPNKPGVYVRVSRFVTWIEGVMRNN
T4 sequence (P00747 97-580 partner limits assumed): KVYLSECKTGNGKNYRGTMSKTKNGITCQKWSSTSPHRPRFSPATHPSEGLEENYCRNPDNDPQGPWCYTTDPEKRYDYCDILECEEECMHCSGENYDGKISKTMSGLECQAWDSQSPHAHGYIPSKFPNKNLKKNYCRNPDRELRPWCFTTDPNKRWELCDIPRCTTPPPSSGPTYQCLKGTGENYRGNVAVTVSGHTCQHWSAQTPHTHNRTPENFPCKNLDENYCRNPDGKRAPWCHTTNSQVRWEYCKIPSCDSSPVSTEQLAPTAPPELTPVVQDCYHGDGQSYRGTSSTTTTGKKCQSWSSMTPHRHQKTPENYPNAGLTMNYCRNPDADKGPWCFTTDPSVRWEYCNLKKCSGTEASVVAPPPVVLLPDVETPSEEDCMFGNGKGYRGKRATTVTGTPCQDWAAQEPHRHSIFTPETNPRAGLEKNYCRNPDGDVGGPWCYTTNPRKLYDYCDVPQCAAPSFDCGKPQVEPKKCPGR
The series can be described thus: Plasmin-inhibitory activity. The class given is biochemical. Particulars: Table 9. The procedure: as §1
The same procedures as those described in item (A) were carried out except that the enzyme testing buffer solution contained 0.6 CasU/ml human plasmin (available from Daiichi Kagaku Yakuhin K.K.) and the substrate consisted of D-valyl-L-leucyl-L-lysyl-p-nitro-anilide (available from Daiichi Kagaku Yakuhin K.K.).
An IC50 for the human plasmin was determined in the same manner as mentioned above.

A short description of series [3]: Stability in human serum (37° C., HPLC peak area). It counts as in vitro ADME. The method, then:
A solution of […] of 7-(N-carbobenzoxy-L-phenylalanyl)amino-2-isopropylamino-5-methyl-4H-3,1-benzoxazin-4-one in 50 μl acetonitrile was mixed with 0.45 ml of human serum, and the resultant mixture was allowed to stand at a temperature of 37° C. The mixture was subjected to treatment with a Sep-pac C18 cartridge (trademark, made by Waters Cc.) for removal of protein, and a portion of the resultant acetonitrile-eluted fraction was subjected to a high speed liquid chromatographic analysis.

Where [4] appears, read: Table 9, ratio of IC50 for the protease to IC50 for human purulent sputum elastase.
Where [5] appears, read: ratio of IC50 for the protease to IC50 for human purulent sputum elastase.

The term IC50 denotes the midpoint of a concentration-inhibition curve. Higher therefore signals weaker potency in that assay. By half-life is commonly meant how long it takes for the measured level to halve. Low values mean rapid decline, high ones slow decline.

Some results are limits rather than exact numbers.

`O=C(Nc1ccc2c(=O)oc(C(F)(F)F)nc2c1)[C@@H]1CCCN1C(=O)OCc1ccccc1` [Example 20, 7-(N-carbobenzoxy-L-prolyl)amino-2-trifluoromethyl-4H-3,1-benzoxazin-4-one]: the half-inhibitory concentration (IC50) in series [1] amounted to 2200 nM; in series [2], 17000 nM. In addition, the Selectivity in series [2] is 7.7.

With `CC(C)Oc1nc2cc(NC(=O)[C@@H]3CCCN3C(=O)OCc3ccccc3)ccc2c(=O)o1` [Example 21, 7-(N-carbobenzoxy-L-prolyl)amino-2-isopropoxy-4H-3,1-benzoxazin-4-one], the IC50 in series [1] is 44 nM. Besides, in series [2], the IC50 is 170 nM and the Selectivity was 3.9.

Regarding `CC(C)Oc1nc2cc(NC(=O)[C@H](C)NC(=O)OCc3ccccc3)ccc2c(=O)o1` [Example 22], the IC50 was 77 nM in series [1] and 370 nM in series [2]. Besides, the Selectivity in series [2] is 4.8.

Take `CC(C)Oc1nc2cc(NC(=O)[C@@H](NC(=O)OCc3ccccc3)C(C)C)ccc2c(=O)o1` [Example 23]: the IC50 in series [1] was 24 nM; in series [2], 160 nM. Besides, the Selectivity in series [2] is 6.6.

As for `CC(C)Oc1nc2cc(NC(=O)[C@H](Cc3ccccc3)NC(=O)OCc3ccccc3)ccc2c(=O)o1` [Example 24], the half-maximal inhibitory concentration (IC50) in series [1] worked out at 11 nM; in series [2] it was 340 nM. Besides, in series [2], the Selectivity is recorded as 31.

In series [1], `CC(C)Oc1nc2cc(NC(=O)[C@H](CCCCNC(=O)OCc3ccccc3)NC(=O)OCc3ccccc3)ccc2c(=O)o1` [Example 25] yielded an IC50 of 14 nM. For the same compound, in series [2], the IC50 came out at 580 nM and the Selectivity was found to be 41.

With `CC(C)Oc1nc2cc(NC(=O)[C@H](CCC(=O)OCc3ccccc3)NC(=O)OCc3ccccc3)ccc2c(=O)o1` [Example 26], in series [1], it took 26 nM to reach half-maximal inhibition (IC50). In series [2], the concentration for half-maximal inhibition (IC50) is over 500 nM and the Selectivity is over 20.

On to `CC(C)Oc1nc2cc(NC(=O)[C@@H](Cc3ccccc3)NC(=O)OCc3ccccc3)ccc2c(=O)o1` [Example 27], for which the IC50 in series [1] came out at 41 nM; in series [2], 490 nM. The Selectivity in series [2] was found to be 12.

The compound `CC(C)Oc1nc2cc(NC(=O)[C@@H]3CCCN3C(=O)OC(C)(C)C)ccc2c(=O)o1` [Example 28] came in with a concentration for half-maximal inhibition (IC50) in series [1] of 35 nM. Further, in series [2], the midpoint of inhibition, the IC50, lay at 130 nM and the Selectivity is on record as 3.7.

Take `CC(C)Oc1nc2cc(NC(=O)[C@H](Cc3ccccc3)NC(=O)OC(C)(C)C)ccc2c(=O)o1` [Example 29]: the IC50 in series [1] worked out at 46 nM. Moreover, in series [2], 94 nM corresponded to half-maximal inhibition (IC50) and the Selectivity is 2.0.

Compound `CC(=O)N1CCC[C@H]1C(=O)Nc1ccc2c(=O)oc(OC(C)C)nc2c1` [Example 30] returned an IC50 in series [1] of 130 nM. Further, in series [2], the half-inhibitory concentration (IC50) was found to be 490 nM and the Selectivity was determined as 3.8.

Take `CC(C)Oc1nc2cc(NC(=O)[C@@H]3CCCN3C(=O)[C@H](C)NC(=O)OCc3ccccc3)ccc2c(=O)o1` [Example 31]: in series [1], the IC50 worked out at 32 nM. Further, in series [2], the IC50 was found to be 180 nM and the Selectivity turned out to be 5.6.

As for `CC(C)Oc1nc2cc(NC(=O)[C@@H](NC(=O)[C@@H]3CCCN3C(=O)OCc3ccccc3)C(C)C)ccc2c(=O)o1` [Example 32], the values for the 50% inhibitory concentration (IC50) in series [1] and in series [2] were 20 nM and 120 nM, respectively. For the same compound, the Selectivity in series [2] is 5.8.

Take `CC(C)Oc1nc2cc(NC(=O)[C@@H](NC(=O)[C@H](Cc3ccccc3)NC(=O)OCc3ccccc3)C(C)C)ccc2c(=O)o1` [Example 33]: in series [1], the IC50 came to 21 nM. Moreover, in series [2], half-maximal inhibition (IC50) was put at 180 nM and the Selectivity amounted to 5.6.

In the case of `Cc1cc(NC(=O)[C@H](Cc2ccccc2)NC(=O)OCc2ccccc2)cc2nc(OC(C)C)oc(=O)c12` [Example 34, 7-(N-carbobenzoxy-L-phenylalanyl)amino-2-isopropoxy-5-methyl-4H-3,1-benzoxazin-4-one], the IC50 came out at 0.55 nM in series [1] and 10 nM in series [2]. Further, the Selectivity in series [2] was determined as 18.

`Cc1cc(NC(=O)[C@H](Cc2ccccc2)NC(=O)OCc2ccccc2)cc2nc(NC(C)C)oc(=O)c12` [Example 36, 7-(N-carbobenzoxy-L-phenylalanyl)amino-5-methyl-2-isopropylamino-4H-3,1-benzoxazin-4-one]: in series [1] (setting [4]), the “Selectivity, human purulent sputum elastase” value was determined as 1. The IC50 was 1.3 nM in series [1], 25 nM in series [2], over 100 µM against human thrombin (0.04 μkat/ml enzyme) and 75 µM against human plasmin (0.6 CasU/ml enzyme). Further, the “Selectivity, bovine pancreas α-chymotrypsin” value in series [2] (setting [4]) was 19. In addition, the Selectivity in series [2] worked out at 19. Moreover, the “Selectivity, human thrombin” value at human thrombin (setting [5]) is reported as > 100,000. At human plasmin (setting [5]), the “Selectivity, human plasmin” value is reported as 58,000. This compound also returned a half-life in series [3] of 150 min.

Turning to `Cc1nc2cc(NC(=O)[C@H](Cc3ccccc3)NC(=O)OCc3ccccc3)ccc2c(=O)o1` [Example 37, 7-(N-carbobenzoxy-L-phenylalanyl)amino-2-methyl-4H-3,1-benzoxazin4-one], it took 5100 nM to reach half-maximal inhibition in series [1] (IC50). In addition, in series [2], half-maximal inhibition (IC50) required 160000 nM and the Selectivity was 31.

In turn, `O=c1oc(C(F)(F)F)nc2ccccc12` [compound 1, reference compound] yielded an IC50 in series [1] of 6200 nM. Moreover, in series [2], inhibition was half-maximal at 680 nM (IC50) and the Selectivity came to 0.10.

The compound `CC(C)Oc1nc2ccccc2c(=O)o1` [compound 2, reference compound] showed an IC50 in series [1] of 49 nM. Moreover, in series [2], half-maximal inhibition (IC50) was put at 22 nM and the Selectivity amounted to 0.44.

Take `CC(=O)Nc1ccc2c(=O)oc(OC(C)C)nc2c1` [compound 3, reference compound]: the IC50 is 58 nM in series [1] and 32 nM in series [2]. The Selectivity in series [2] was 0.55.

`Cc1cccc2nc(OC(C)C)oc(=O)c12` [compound 4, reference compound] yielded a concentration for half-maximal inhibition (IC50) in series [1] of 41 nM. Also, in series [2], the half-inhibitory concentration (IC50) was determined as 120 nM and the Selectivity was found to be 2.9.
